pIC50: −log10 of the molar value. Like-named read-outs stand apart in the source and are kept apart here.
Assays:
Assay in all cases: MTT cell proliferation assay
Type in all cases: cell-based
[1] = tested on: 3T3 cells; conditions: Mus musculus, NIH3T3, approximately 64-72 hours incubation
Outline: (§1)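 Cytotoxicity was measured by MTT: OD490 of the solubilized formazan after roughly 4 h with MTT reagent, reported as mean percent inhibition relative to the negative control. Test compounds covered eight concentrations between 1 nM and 30 μM, added to 5,000–10,000 cells per well that had attached overnight.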

[2] = tested on: Z138 cells; conditions: Homo sapiens, Z-138, Z138 cells, approximately 64-72 hours incubation
Outline: as §1

[3] = tested on: MS751 cells; conditions: Homo sapiens, MS751, MS751 cells, approximately 64-72 hours incubation
Outline: as §1

[4] = read-out: MTT Assay IC50, Z-138
[5] = read-out: MTT Assay IC50, MS-751
[6] = read-out: MTT Assay IC50 MS-751

Structure (SMILES) | pIC50 ([1]; read-out: MTT Assay IC50, 3T3) | pIC50 [2, 4] | pIC50 [3, 5] | pIC50 ([1]; read-out: MTT Assay IC50 3T3) | pIC50 ([2]; read-out: MTT Assay IC50 Z-138) | pIC50 [3, 6]
Nc1ccc(/C=C/C(=O)NCc2cc3cc(-c4ccc(C(=O)N5CCC(F)(F)CC5)cn4)cc(-c4ccncc4)c3o2)cn1 [Compound 666, (E)-3-(6-aminopyridin-3-yl)-N-((5-(5-(4,4-difluoropiperidine-1-carbonyl)pyridin-2-yl)-7-(pyridin-4-yl)benzofuran-2-yl)methyl)acrylamide] | 5.30 to 7.00 | > 7.00 | > 7.00 | – | – | –
Nc1ccc(/C=C/C(=O)NCc2cc3cc(-c4ccc(F)c(C(=O)N5CCOCC5)c4)cc(Cl)c3o2)cn1 [Compound 562, (E)-3-(6-aminopyridin-3-yl)-N-((7-chloro-5-(4-fluoro-3-(morpholine-4-carbonyl)phenyl)benzofuran-2-yl)methyl)acrylamide] | – | – | – | < 5.00 | > 7.00 | > 7.00
Nc1ccc(/C=C/C(=O)NCc2cc3cc(-c4ccc(C(=O)N5CCC[C@H]5C(F)(F)F)cn4)cc(C(F)(F)F)c3o2)cn1 [Compound 622, (S,E)-3-(6-aminopyridin-3-yl)-N-((7-(trifluoromethyl)-5-(5-(2-(trifluoromethyl)pyrrolidine-1-carbonyl)pyridin-2-yl)benzofuran-2-yl)methyl)acrylamide] | – | – | – | < 5.00 | 5.00 to 5.30 | < 5.00
Nc1ccc(/C=C/C(=O)NCc2cc3cc(-c4ccc(C(=O)N5CCC(F)(F)CC5)cn4)cc(-c4nnco4)c3o2)cn1 [Compound 662, (E)-3-(6-aminopyridin-3-yl)-N-((5-(5-(4,4-difluoropiperidine-1-carbonyl)pyridin-2-yl)-7-(1,3,4-oxadiazol-2-yl)benzofuran-2-yl)methyl)acrylamide] | < 5.00 | 5.30 to 7.00 | 5.30 to 7.00 | – | – | –
CC(c1ccc(-c2cc(-c3ccc(F)cc3)c3oc(CNC(=O)/C=C/c4ccc(N)nc4)cc3c2)cc1)N1CCC(F)(F)CC1 (stereo not drawn) [Compound 760, (E)-3-(6-aminopyridin-3-yl)-N-((5-(4-(1-(4,4-difluoropiperidin-1-yl)ethyl)phenyl)-7-(4-fluorophenyl)benzofuran-2-yl)methyl)acrylamide] | < 5.00 | 5.30 to 7.00 | 5.30 to 7.00 | – | – | –
Nc1ccc(/C=C/C(=O)NCc2cc3cc(-c4ncc(C(=O)N5CCNCC5)cn4)cc(Cl)c3o2)cn1 [Compound 649, (E)-3-(6-aminopyridin-3-yl)-N-((7-chloro-5-(5-(piperazine-1-carbonyl)pyrimidin-2-yl)benzofuran-2-yl)methyl)acrylamide] | – | – | – | < 5.00 | 5.30 to 7.00 | 5.30 to 7.00
Nc1ccc(/C=C/C(=O)NCc2cc3cc(-c4ccc(C(=O)N5CCC(F)(F)CC5)cc4F)cc(-c4ccc(Cl)cc4)c3o2)cn1 [Compound 750, (E)-3-(6-aminopyridin-3-yl)-N-((7-(4-chlorophenyl)-5-(4-(4,4-difluoropiperidine-1-carbonyl)-2-fluorophenyl)benzofuran-2-yl)methyl)acrylamide] | < 5.00 | 5.30 to 7.00 | 5.30 to 7.00 | – | – | –
Nc1ccc(/C=C/C(=O)NCc2cc3cc(-c4ccc(C(=O)N5CCC(F)(F)CC5)cc4)cc(-c4ccc(F)c(F)c4)c3o2)cn1 [Compound 737, (E)-3-(6-aminopyridin-3-yl)-N-((7-(3,4-difluorophenyl)-5-(4-(4,4-difluoropiperidine-1-carbonyl)phenyl)benzofuran-2-yl)methyl)acrylamide] | 5.30 to 7.00 | > 7.00 | > 7.00 | – | – | –
CC(=O)c1ccc(-c2ccc3oc(CNC(=O)/C=C/c4ccc(N)nc4)cc3c2)s1 [Compound 503, (E)-N-((5-(5-acetylthiophen-2-yl)benzofuran-2-yl)methyl)-3-(6-aminopyridin-3-yl)acrylamide] | – | – | – | < 5.00 | < 5.00 | 5.30 to 7.00
Nc1ccc(/C=C/C(=O)NCc2cc3cc(-c4ccc(C(=O)N5CCC(O)(C(F)(F)F)C5)cn4)cc(C(F)(F)F)c3o2)cn1 (stereo not drawn) [Compound 613, (E)-3-(6-aminopyridin-3-yl)-N-((5-(5-(3-hydroxy-3-(trifluoromethyl)pyrrolidine-1-carbonyl)pyridin-2-yl)-7-(trifluoromethyl)benzofuran-2-yl)methyl)acrylamide] | – | – | – | < 5.00 | > 7.00 | 5.30 to 7.00
Nc1ccc(/C=C/C(=O)NCc2cc3cc(-c4ccc(F)c(S(=O)(=O)N5CCOCC5)c4)cc(Cl)c3o2)cn1 [Compound 636, (E)-3-(6-aminopyridin-3-yl)-N-((7-chloro-5-(4-fluoro-3-(morpholinosulfonyl)phenyl)benzofuran-2-yl)methyl)acrylamide] | – | – | – | < 5.00 | 5.30 to 7.00 | 5.30 to 7.00
Nc1ccc(/C=C/C(=O)NCc2cc3cc(-c4ccc(C(=O)N5CCC(F)(F)CC5)cc4F)cc(-c4cccc(F)c4)c3o2)cn1 [Compound 755, (E)-3-(6-aminopyridin-3-yl)-N-((5-(4-(4,4-difluoropiperidine-1-carbonyl)-2-fluorophenyl)-7-(3-fluorophenyl)benzofuran-2-yl)methyl)acrylamide] | 5.30 to 7.00 | > 7.00 | 5.30 to 7.00 | – | – | –
Nc1ccc(/C=C/C(=O)NCc2cc3cc(-c4ccc(C(=O)N5CC(F)C5)cc4)cc(C(F)(F)F)c3o2)cn1 [Compound 524, (E)-3-(6-aminopyridin-3-yl)-N-((5-(4-(3-fluoroazetidine-1-carbonyl)phenyl)-7-(trifluoromethyl)benzofuran-2-yl)methyl)acrylamide] | – | – | – | < 5.00 | 5.30 to 7.00 | 5.30 to 7.00
Nc1ccc(/C=C/C(=O)NCc2cc3cc(-c4ccc(C(=O)N5CC(O)(C(F)(F)F)C5)cn4)cc(C(F)(F)F)c3o2)cn1 [Compound 747, (E)-3-(6-aminopyridin-3-yl)-N-((5-(5-(3-hydroxy-3-(trifluoromethyl)azetidine-1-carbonyl)pyridin-2-yl)-7-(trifluoromethyl)benzofuran-2-yl)methyl)acrylamide] | < 5.00 | 5.30 to 7.00 | 5.30 to 7.00 | – | – | –
CN(C)c1ccc(-c2cc(Cl)c3oc(CNC(=O)/C=C/c4ccc(N)nc4)cc3c2)nc1 [Compound 646, (E)-3-(6-aminopyridin-3-yl)-N-((7-chloro-5-(5-(dimethylamino)pyridin-2-yl)benzofuran-2-yl)methyl)acrylamide] | – | – | – | < 5.00 | < 5.00 | < 5.00
CO[C@@H]1CN(C(=O)c2ccc(-c3cc(C(F)(F)F)c4oc(CNC(=O)/C=C/c5ccc(N)nc5)cc4c3)nc2)C[C@H]1F [Compound 628, (E)-3-(6-aminopyridin-3-yl)-N-((5-(5-(3-fluoro-4-methoxypyrrolidine-1-carbonyl)pyridin-2-yl)-7-(trifluoromethyl)benzofuran-2-yl)methyl)acrylamide] | – | – | – | < 5.00 | 5.30 to 7.00 | 5.30 to 7.00
Nc1ccc(/C=C/C(=O)NCc2cc3cc(-c4ccc(CN5CCC(F)(F)CC5)cn4)cc(C(F)(F)F)c3o2)cn1 [Compound 675, (E)-3-(6-aminopyridin-3-yl)-N-((5-(5-((4,4-difluoropiperidin-1-yl)methyl)pyridin-2-yl)-7-(trifluoromethyl)benzofuran-2-yl)methyl)acrylamide] | < 5.00 | < 5.00 | < 5.00 | – | – | –
CN1CCN(C(=O)c2cnc(-c3cc(C(F)(F)F)c4oc(CNC(=O)/C=C/c5ccc(N)nc5)cc4c3)nc2)CC1 [Compound 594, (E)-3-(6-aminopyridin-3-yl)-N-((5-(5-(4-methylpiperazine-1-carbonyl)pyrimidin-2-yl)-7-(trifluoromethyl)benzofuran-2-yl)methyl)acrylamide] | – | – | – | < 5.00 | 5.30 to 7.00 | 5.30 to 7.00

Source: US12331040B2 (Karyopharm Therapeutics Inc., priority 2013, dated 2025)
